# According to patent US20200087269A1, “PROCESS FOR THE PRODUCTION OF OZANIMOD” (EGIS GYOGYSZERGYAR ZRT., priority 2017, published 2020):
# What was measured:
# [1] = Dynamic vapour sorption (DVS) measurement; assay type: physicochemical; settings: 25° C.
# Method: Dynamic Vapour Sorption (DVS)
# Device: TA Q5000SA dynamic vapour sorption analyser (DVS) Atmosphere: Flowing nitrogen Carrier gas flow rate: 200 mL/min N2
# Balance house flow rate: 10 mL/min N2 Temperature maintained • 35° C. in balance house: Crucible type: Platinum 100 μl, open Measuring method: Custom
# Measuring temperature: 25° C., isotherm Measurement range: Between 0% and 95% RH Initial relative humidity: 20% RH Measurement phases: Desorption-adsorption-desorption Step size: 5% RH Mass constant criterion: ≤0.01% for 5 minutes Maximum step length: 360 minutes Sampling frequency: 5 sec/point Number of cycles: 2
# The dynamic vapour sorption (DVS) measurement of the ozanimod base Form I polymorph according to example 6
# [2] = X-ray powder diffraction after two DVS cycles (polymorph stability to humidity); assay type: physicochemical
# Method: FIG. 5: The x-ray powder diffractogram of the ozanimod base Form I form after two DVS cycles (see example 6).
# The x-ray powder diffraction measurements were performed as follows:
# Device: PANalytical Empyrean x-ray powder diffractometer Measurement alignment: Transmission
# Type: Empyrean long fine focussing, high resolution tube
# Divergence slit: Fixed slit 1/2° Mirror: Focussing elliptical mirror Soller slit: 0.04 rad Diffusion inhibitor slit: Fixed slit 1/2°
# Diffusion inhibitor slit: Programmable slit in fixed mode: 1/2° Soller slit: 0.04 rad
# Type: Reflection-transmission, with rotatable sample holders Sample rotation speed: 1 rotation/second Direct beam catcher (“beam knife”): Transmission
# Type: PIXcel 3D 1×1 area detector Operation mode: Scanning line detector (ID) operation mode Active detector window size: 3.3473° Sample preparation: samples placed between two Mylar sheets, without pulverising
# Temperature: room temperature Accelerating voltage: 45 kV Anode heating current: 40 mA Scanning method: continuous (θ/θ) scanning Measurement range: 2.0000-34.9964° 2θ
# Step duration: 109.650 seconds No of measurement cycles: 1 Measurement duration: ˜20 minutes
structure (smiles),measurement,setting,value
"CC(C)Oc1ccc(-c2nc(-c3cccc4c3CC[C@@H]4NCCO)no2)cc1C#N [ozanimod base Form I polymorph, ozanimod]",hygroscopicity,"[1]; DVS, 0-95% RH",slightly hygroscopic
same,sorption isotherm on repeating the cycle,[1]; second DVS cycle,did not change
same,mass increase of the sample,"[1]; under 95% relative humidity, first cycle",0.6%
same,stability of the polymorph form / sensitivity to humidity,[2]; 25° C.,"stable at 25° C., and not sensitive to humidity"
same,influence of the humidity of the air on the stability of the crystals,[2]; according to applicant's tests,does not influence the stability of the crystals
same,polymorphic nature under air humidity,[2]; according to applicant's tests,does not change
same,"crystal structure after the two DVS cycles (x-ray powder diffractogram, FIG. 5 vs FIG. 3)","[2]; after two DVS cycles, 25° C., 0-95% RH",unchanged
